How the values were obtained:
Format in all cases: cell-based
Nav 1.7 [1] = target: T1, Nav 1.7 (Homo sapiens (Human), UniProt Q15858); experiment: Nav 1.7 in vitro assay, IonWorks Quattro (IWQ) population patch-clamp; details: HEK 293 cells stably transfected with Nav 1.7; 26th pulse to -20 mV
Nav 1.5 = Nav 1.5 (Homo sapiens (Human), UniProt Q14524); experiment: Nav 1.5 in vitro assay, IonWorks Quattro (IWQ) population patch-clamp; details: HEK 293 cells stably transfected with Nav 1.5; 26th pulse to -20 mV
Nav 1.5, sequence (Q14524 whole entry): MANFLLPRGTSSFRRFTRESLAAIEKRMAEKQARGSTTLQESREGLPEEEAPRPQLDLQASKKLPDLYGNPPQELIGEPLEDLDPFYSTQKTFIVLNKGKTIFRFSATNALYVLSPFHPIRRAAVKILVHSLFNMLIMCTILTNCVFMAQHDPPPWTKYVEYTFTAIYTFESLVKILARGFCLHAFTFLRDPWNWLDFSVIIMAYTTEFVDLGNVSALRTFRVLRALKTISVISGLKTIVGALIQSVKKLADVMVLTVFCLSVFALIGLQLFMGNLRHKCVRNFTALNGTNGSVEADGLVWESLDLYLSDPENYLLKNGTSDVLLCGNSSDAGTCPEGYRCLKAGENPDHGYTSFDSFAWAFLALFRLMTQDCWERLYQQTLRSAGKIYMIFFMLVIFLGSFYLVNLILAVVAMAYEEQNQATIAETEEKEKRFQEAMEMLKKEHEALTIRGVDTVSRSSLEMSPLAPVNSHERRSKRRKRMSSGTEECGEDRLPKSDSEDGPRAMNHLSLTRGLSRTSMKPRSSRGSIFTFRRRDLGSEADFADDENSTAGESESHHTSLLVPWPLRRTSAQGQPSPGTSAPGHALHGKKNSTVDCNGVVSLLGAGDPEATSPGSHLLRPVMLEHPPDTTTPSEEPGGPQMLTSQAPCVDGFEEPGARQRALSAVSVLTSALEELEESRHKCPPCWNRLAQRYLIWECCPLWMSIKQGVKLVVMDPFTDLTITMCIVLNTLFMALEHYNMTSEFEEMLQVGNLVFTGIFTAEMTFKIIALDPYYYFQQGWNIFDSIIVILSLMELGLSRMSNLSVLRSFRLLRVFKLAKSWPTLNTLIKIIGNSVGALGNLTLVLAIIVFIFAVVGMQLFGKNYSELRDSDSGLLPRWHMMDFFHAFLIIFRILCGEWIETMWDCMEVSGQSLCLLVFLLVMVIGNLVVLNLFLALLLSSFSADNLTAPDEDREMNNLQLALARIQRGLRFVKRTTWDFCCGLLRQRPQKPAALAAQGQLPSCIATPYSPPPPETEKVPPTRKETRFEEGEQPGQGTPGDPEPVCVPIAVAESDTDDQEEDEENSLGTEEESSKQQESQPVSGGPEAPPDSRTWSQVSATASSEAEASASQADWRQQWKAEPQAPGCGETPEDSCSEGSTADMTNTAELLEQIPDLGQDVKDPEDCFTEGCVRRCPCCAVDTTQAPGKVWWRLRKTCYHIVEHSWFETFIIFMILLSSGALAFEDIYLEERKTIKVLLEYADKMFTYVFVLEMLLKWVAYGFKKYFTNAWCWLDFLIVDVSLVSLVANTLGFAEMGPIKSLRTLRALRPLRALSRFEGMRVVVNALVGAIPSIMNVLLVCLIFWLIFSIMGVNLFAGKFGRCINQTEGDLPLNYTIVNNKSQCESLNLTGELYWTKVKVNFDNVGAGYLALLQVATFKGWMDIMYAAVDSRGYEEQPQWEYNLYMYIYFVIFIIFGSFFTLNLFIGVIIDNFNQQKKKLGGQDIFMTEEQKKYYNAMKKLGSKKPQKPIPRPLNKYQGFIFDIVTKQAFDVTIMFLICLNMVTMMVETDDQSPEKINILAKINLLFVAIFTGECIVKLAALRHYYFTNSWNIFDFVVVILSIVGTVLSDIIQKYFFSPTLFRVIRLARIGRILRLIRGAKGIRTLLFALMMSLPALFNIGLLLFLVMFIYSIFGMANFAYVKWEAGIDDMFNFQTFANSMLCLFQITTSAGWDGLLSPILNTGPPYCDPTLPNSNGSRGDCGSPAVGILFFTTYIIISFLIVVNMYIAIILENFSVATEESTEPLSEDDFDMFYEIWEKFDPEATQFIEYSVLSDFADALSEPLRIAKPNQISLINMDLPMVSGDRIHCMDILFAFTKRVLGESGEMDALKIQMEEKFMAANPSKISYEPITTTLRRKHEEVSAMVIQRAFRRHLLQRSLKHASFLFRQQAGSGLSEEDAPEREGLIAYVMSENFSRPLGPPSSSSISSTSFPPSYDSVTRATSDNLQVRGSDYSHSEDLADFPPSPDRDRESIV

Nav 1.7 [2] = target: T1, Nav 1.7; experiment: Nav 1.7 in vitro PX assay, PatchXpress whole cell voltage clamp; details: HEK 293 cells stably transfected with human Nav1.7; for IC50: partially inactivated state (20 to 50% inactivation); for inhibition at 4.9 µM: HEK293, values marked *, read-out: Nav 1.7 PX percent inhibition at 4.9 μM
How it was run: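 Partially inactivated channels (20–50% inactivation at holding potential) were probed on automated patch clamp in stably transfected HEK293 cells, stepping to −10 mV for 20 msec every 10 s (0.1 Hz).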

T1 sequence (Q15858 whole entry): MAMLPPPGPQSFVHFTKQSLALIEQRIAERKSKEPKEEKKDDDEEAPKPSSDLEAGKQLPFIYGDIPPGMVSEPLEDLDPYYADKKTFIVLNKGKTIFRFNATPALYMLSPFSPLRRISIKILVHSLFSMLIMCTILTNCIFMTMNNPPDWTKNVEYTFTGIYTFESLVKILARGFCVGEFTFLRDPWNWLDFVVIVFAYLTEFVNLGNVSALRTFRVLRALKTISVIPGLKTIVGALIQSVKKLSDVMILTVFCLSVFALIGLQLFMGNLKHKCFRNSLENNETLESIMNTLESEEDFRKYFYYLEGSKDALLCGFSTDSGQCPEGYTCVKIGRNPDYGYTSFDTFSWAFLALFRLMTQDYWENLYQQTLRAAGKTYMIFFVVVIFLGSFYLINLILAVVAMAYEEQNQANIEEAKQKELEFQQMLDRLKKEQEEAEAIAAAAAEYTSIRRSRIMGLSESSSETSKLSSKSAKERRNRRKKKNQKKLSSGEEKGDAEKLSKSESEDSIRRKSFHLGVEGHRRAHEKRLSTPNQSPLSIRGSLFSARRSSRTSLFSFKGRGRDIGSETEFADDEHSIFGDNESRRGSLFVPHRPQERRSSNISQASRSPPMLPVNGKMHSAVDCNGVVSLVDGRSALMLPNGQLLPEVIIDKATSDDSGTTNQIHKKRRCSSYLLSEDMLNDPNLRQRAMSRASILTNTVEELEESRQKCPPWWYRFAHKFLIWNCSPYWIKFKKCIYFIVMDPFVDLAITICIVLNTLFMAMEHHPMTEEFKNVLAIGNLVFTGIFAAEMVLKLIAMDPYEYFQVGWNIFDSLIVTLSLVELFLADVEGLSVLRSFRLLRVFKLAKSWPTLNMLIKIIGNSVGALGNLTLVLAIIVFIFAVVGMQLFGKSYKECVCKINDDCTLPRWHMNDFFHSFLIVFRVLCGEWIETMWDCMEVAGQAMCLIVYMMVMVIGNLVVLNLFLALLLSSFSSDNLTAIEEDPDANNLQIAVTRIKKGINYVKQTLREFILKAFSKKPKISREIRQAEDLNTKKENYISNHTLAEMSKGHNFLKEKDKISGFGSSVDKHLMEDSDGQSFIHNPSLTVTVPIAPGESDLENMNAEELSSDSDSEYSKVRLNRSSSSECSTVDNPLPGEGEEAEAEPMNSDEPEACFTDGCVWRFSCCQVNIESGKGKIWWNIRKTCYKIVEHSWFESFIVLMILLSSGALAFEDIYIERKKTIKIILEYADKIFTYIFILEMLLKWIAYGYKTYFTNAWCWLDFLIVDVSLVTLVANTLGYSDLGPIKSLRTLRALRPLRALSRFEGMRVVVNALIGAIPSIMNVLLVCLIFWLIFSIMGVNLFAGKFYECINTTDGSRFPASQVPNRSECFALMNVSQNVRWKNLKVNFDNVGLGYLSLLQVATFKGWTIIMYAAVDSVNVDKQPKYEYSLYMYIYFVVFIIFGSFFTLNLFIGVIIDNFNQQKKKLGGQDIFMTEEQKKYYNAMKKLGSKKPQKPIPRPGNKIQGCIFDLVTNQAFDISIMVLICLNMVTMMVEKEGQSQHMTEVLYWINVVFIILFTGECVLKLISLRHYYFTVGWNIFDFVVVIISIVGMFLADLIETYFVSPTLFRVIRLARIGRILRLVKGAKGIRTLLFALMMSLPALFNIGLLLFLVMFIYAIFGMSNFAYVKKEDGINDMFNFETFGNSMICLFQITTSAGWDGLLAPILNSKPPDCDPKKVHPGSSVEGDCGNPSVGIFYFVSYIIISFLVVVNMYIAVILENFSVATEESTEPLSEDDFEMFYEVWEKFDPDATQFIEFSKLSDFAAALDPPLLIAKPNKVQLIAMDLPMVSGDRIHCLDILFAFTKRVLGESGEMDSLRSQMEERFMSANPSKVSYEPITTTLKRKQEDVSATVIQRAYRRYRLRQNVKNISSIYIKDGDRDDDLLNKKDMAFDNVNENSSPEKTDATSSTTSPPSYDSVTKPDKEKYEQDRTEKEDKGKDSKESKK

Row | IC50 (Nav 1.7 [1]) [nM] | IC50 (Nav 1.7 [2]) [nM] | inhibition at 4.9 µM (Nav 1.7 [2]) [%] | Structure (SMILES) | IC50 (Nav 1.5) [nM]
1 | 236 | 1650 | – | O=S(=O)(Nc1nccs1)c1ccc2c(c1)OCCN2c1cccc(C(F)(F)F)c1 [Example 173, N-(Thiazol-2-Yl)-4-(3-(Trifluoromethyl)Phenyl)-3,4-Dihydro-2H-Benzo[B][1,4]Oxazine-7-Sulfonamide 2,2,2-Trifluoroacetate] | > 10000
2 | 2680 | – | 22.6 | Cc1ccc(C#N)c(N2CCOc3cc(S(=O)(=O)Nc4nccs4)ccc32)n1 [Example 135, 4-(3-Cyano-6-methylpyridin-2-yl)-N-(thiazol-2-yl)-3,4-dihydro-2H-benzo[b][1,4]oxazine-7-sulfonamide] | > 10000
3 | 103 | 684 | – | O=S(=O)(Nc1nccs1)c1ccc2c(c1)OCCN2c1ccc(Cl)cc1OC(F)F [Example 193, 4-(4-Chloro-2-(Difluoromethoxy)Phenyl)-N-(Thiazol-2-Yl)-3,4-Dihydro-2H-Benzo[B][1,4]Oxazine-7-Sulfonamide 2,2,2-Trifluoroacetate] | 1560
4 | 26 | 381 | – | O=S(=O)(Nc1cccnn1)c1ccc2c(c1)OCCN2c1ccc(C(F)(F)F)cc1C1=CCNCC1 [Example 87, N-(Pyridazin-3-Yl)-4-(2-(1,2,3,6-Tetrahydropyridin-4-Yl)-4-(Trifluoromethyl)Phenyl)-3,4-Dihydro-2H-Benzo[B][1,4]Oxazine-7-Sulfonamide] | > 10000
5 | 27 | 144 | – | O=S(=O)(Nc1cscn1)c1ccc2c(c1)OCCN2c1ccc(C(F)(F)F)cc1C1=CCNCC1 [Example 63, 4-(2-(1,2,3,6-Tetrahydropyridin-4-Yl)-4-(Trifluoromethyl)Phenyl)-N-(Thiazol-4-Yl)-3,4-Dihydro-2H-Benzo[B][1,4]Oxazine-7-Sulfonamide] | 2670
6 | 211 | 822 | – | N#CCc1cccc(N2CCOc3cc(S(=O)(=O)Nc4nccs4)ccc32)c1 [Example 174, 4-(3-(Cyanomethyl)Phenyl)-N-(Thiazol-2-Yl)-3,4-Dihydro-2H-Benzo[B][1,4]Oxazine-7-Sulfonamide 2,2,2-Trifluoroacetate] | 2010
7 | 1490 | 4510 | – | COc1cnccc1N1CCOc2cc(S(=O)(=O)Nc3nccs3)ccc21 [Example 158, 4-(3-methoxypyridin-4-yl)-N-(thiazol-2-yl)-3,4-dihydro-2H-benzo[b][1,4]oxazine-7-sulfonamide] | > 10000
8 | 45.5 | 303 | – | COc1cc(C#N)ccc1N1C[C@@H](C)Oc2cc(S(=O)(=O)Nc3nccs3)ccc21 (single isomer, unassigned) [Example 108] | > 10000
9 | 2980 | – | 27.4 | O=S(=O)(Nc1nccs1)c1ccc2c(c1)OCCN2c1ncc(F)cc1F [Example 136, 4-(3,5-Difluoropyridin-2-yl)-N-(thiazol-2-yl)-3,4-dihydro-2H-benzo[b][1,4]oxazine-7-sulfonamide] | > 10000
10 | 1660 | 12200 | – | CC(C)c1ccc(N2CCOc3cc(S(=O)(=O)Nc4nccs4)ccc32)cc1 [Example 112, 4-(4-Isopropylphenyl)-N-(thiazol-2-yl)-3,4-dihydro-2H-benzo[b][1,4]oxazine-7-sulfonamide] | > 10000
11 | 158 | 1750 | – | O=S(=O)(Nc1nccs1)c1ccc2c(c1)OCCN2c1cccc2ccncc12 [Example 68, 4-(Isoquinolin-8-Yl)-N-(Thiazol-2-Yl)-3,4-Dihydro-2H-Benzo[B][1,4]Oxazine-7-Sulfonamide 2,2,2-Trifluoroacetate] | 4830
12 | 51 | 265 | – | N#Cc1cc(Cl)ccc1N1CCOc2cc(S(=O)(=O)Nc3nccs3)ccc21 [Example 56, 4-(4-Chloro-2-Cyanophenyl)-N-(Thiazol-2-Yl)-3,4-Dihydro-2H-Benzo[B][1,4]Oxazine-7-Sulfonamide] | 4790
13 | 417 | 7730 | – | N#Cc1c(F)cccc1N1CCOc2cc(S(=O)(=O)Nc3nccs3)ccc21 [Example 187, 4-(2-Cyano-3-Fluorophenyl)-N-(Thiazol-2-Yl)-3,4-Dihydro-2H-Benzo[B][1,4]Oxazine-7-Sulfonamide] | > 10000
14 | 72.5 | 534 | – | O=S(=O)(Nc1ccncn1)c1ccc2c(c1)OCCN2c1ccc(C(F)(F)F)cc1Cl [Example 32, 4-(2-Chloro-4-(Trifluoromethyl)Phenyl)-N-(Pyrimidin-4-Yl)-3,4-Dihydro-2H-Benzo[B][1,4]Oxazine-7-Sulfonamide] | 4770
15 | 16 | 91.4 | – | N#Cc1cc(C(F)(F)F)ccc1N1CCOc2cc(S(=O)(=O)Nc3ncns3)ccc21 [Example 31, 4-(2-Cyano-4-(Trifluoromethyl)Phenyl)-N-(1,2,4-Thiadiazol-5-Yl)-3,4-Dihydro-2H-Benzo[B][1,4]Oxazine-7-Sulfonamide] | 1460
16 | 475 | 1320 | – | O=S(=O)(Nc1nccs1)c1ccc2c(c1)OCCN2c1ccc2c(c1)OC(F)(F)O2 [Example 127, 4-(2,2-Difluorobenzo[d][1,3]dioxol-5-yl)-N-(thiazol-2-yl)-3,4-dihydro-2H-benzo[b][1,4]oxazine-7-sulfonamide] | > 10000
17 | 143 | 773 | – | COc1cc(-c2cccc(F)c2)ccc1N1CCOc2cc(S(=O)(=O)Nc3nccs3)ccc21 [Example 201, 4-(3′-Fluoro-3-Methoxy-[1,1′-Biphenyl]-4-Yl)-N-(Thiazol-2-Yl)-3,4-Dihydro-2H-Benzo[B][1,4]Oxazine-7-Sulfonamide] | 4830
18 | 165 | 1080 | – | O=S(=O)(Nc1nccs1)c1ccc2c(c1)OCCN2c1ccccc1Cl [Example 46, 4-(2-Chlorophenyl)-N-(Thiazol-2-Yl)-3,4-Dihydro-2H-Benzo[B][1,4]Oxazine-7-Sulfonamide] | > 10000
19 | 335 | 2620 | – | O=S(=O)(Nc1nccs1)c1ccc2c(c1)OCCN2c1cccc(OC(F)(F)F)c1 [Example 185, N-(Thiazol-2-Yl)-4-(3-(Trifluoromethoxy)Phenyl)-3,4-Dihydro-2H-Benzo[B][1,4]Oxazine-7-Sulfonamide] | 7620
20 | 1590 | – | 20.2 | Cc1cncc(C)c1N1CCOc2cc(S(=O)(=O)Nc3nccs3)ccc21 [Example 133, 4-(3,5-Dimethylpyridin-4-yl)-N-(thiazol-2-yl)-3,4-dihydro-2H-benzo[b][1,4]oxazine-7-sulfonamide] | > 10000
21 | 834 | 4270 | – | O=S(=O)(Nc1ncco1)c1ccc2c(c1)OCCN2c1ccc(C(F)(F)F)cc1Cl [Example 24, 4-(2-Chloro-4-(Trifluoromethyl)Phenyl)-N-(Oxazol-2-Yl)-3,4-Dihydro-2H-Benzo[B][1,4]Oxazine-7-Sulfonamide] | > 10000
22 | 2370 | 12600 | – | O=S(=O)(Nc1nccs1)c1ccc2c(c1)OCCN2c1ccc(Cl)c(F)c1 [Example 155, 4-(4-Chloro-3-Fluorophenyl)-N-(Thiazol-2-Yl)-3,4-Dihydro-2H-Benzo[B][1,4]Oxazine-7-Sulfonamide 2,2,2-Trifluoroacetate] | > 10000
23 | 2920 | 19900 | – | O=S(=O)(Nc1ccno1)c1ccc2c(c1)OCCN2c1ccc(C(F)(F)F)cc1Cl [Example 55, 4-(2-Chloro-4-(Trifluoromethyl)Phenyl)-N-(Isoxazol-5-Yl)-3,4-Dihydro-2H-Benzo[B][1,4]Oxazine-7-Sulfonamide] | > 10000
24 | 13.5 | 158 | – | COc1ccc(F)cc1N1CCOc2cc(S(=O)(=O)Nc3nccs3)ccc21 [Example 151, 4-(5-Fluoro-2-methoxyphenyl)-N-(thiazol-2-yl)-3,4-dihydro-2H-benzo[b][1,4]oxazine-7-sulfonamide] | > 10000
25 | 49 | 282 | – | O=S(=O)(Nc1ccccn1)c1ccc2c(c1)OCCN2c1ccc(C(F)(F)F)cc1C1=CCNCC1 [Example 62, N-(Pyridin-2-Yl)-4-(2-(1,2,3,6-Tetrahydropyridin-4-Yl)-4-(Trifluoromethyl)Phenyl)-3,4-Dihydro-2H-Benzo[B][1,4]Oxazine-7-Sulfonamide] | > 10000
26 | 52.5 | 769 | – | N#Cc1ccc(Cl)cc1N1CCOc2cc(S(=O)(=O)Nc3nccs3)ccc21 [Example 192, 4-(5-Chloro-2-Cyanophenyl)-N-(Thiazol-2-Yl)-3,4-Dihydro-2H-Benzo[B][1,4]Oxazine-7-Sulfonamide] | 1610

Row | Structure (SMILES) | IC50 (Nav 1.7 [1]) [nM] | IC50 (Nav 1.7 [2]) [nM] | inhibition at 4.9 µM (Nav 1.7 [2]) [%] | IC50 (Nav 1.5) [nM]
27 | Cc1ccc(Cl)c(N2CCOc3cc(S(=O)(=O)Nc4nccs4)ccc32)c1 [Example 67, 4-(2-Chloro-5-Methylphenyl)-N-(Thiazol-2-Yl)-3,4-Dihydro-2H-Benzo[B][1,4]Oxazine-7-Sulfonamide 2,2,2-Trifluoroacetate] | 381 | 442 | – | 5330
28 | O=S(=O)(Nc1nccs1)c1ccc2c(c1)OCCN2Cc1ccccc1 [Example 220, 4-Benzyl-N-(Thiazol-2-Yl)-3,4-Dihydro-2H-Benzo[B][1,4]Oxazine-7-Sulfonamide] | 864 | 17200 | – | > 10000
29 | CN1CCN(c2ccc(C(F)(F)F)cc2Cl)c2ccc(S(=O)(=O)Nc3ncns3)cc21 [Example 19, 1-(2-Chloro-4-(Trifluoromethyl)Phenyl)-4-Methyl-N-(1,2,4-Thiadiazol-5-Yl)-1,2,3,4-Tetrahydroquinoxaline-6-Sulfonamide] | 1180 | 4890 | – | > 10000
